Assay results reported in US12171755B2, “PAPD5 inhibitors and methods of use thereof” (Children's Medical Center Corporation, priority 2017, dated 2024).

Biological target: T1, PAPD5 (Homo sapiens, UniProt Q8NDF8)
T1 construct: made in house
Assay: High-throughput luminescence (KinaseGlo) RNA polyadenylation assay, ATP utilization by recombinant PAPD5
Format: biochemical
Details: Table 4 (entries of Table 5), ratio of luminescence with inhibitor to DMSO; for Fold-change determined at compound concentration 33 μM: 33 μM compound; for Fold-change determined at compound concentration 100 μM: 100 μM compound, higher = higher inhibition; for Fold-change determined at compound concentration 10 μM: 10 μM compound
In short: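 Recombinant PAPD5 polyadenylates an oligonucleotide substrate using ATP, and remaining ATP is read by KinaseGlo luciferase luminescence. Compound was incubated for 2 h at room temperature, then with luciferase for 10 min.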

T1 sequence (Q8NDF8 68-698 isoform Q8NDF8-5): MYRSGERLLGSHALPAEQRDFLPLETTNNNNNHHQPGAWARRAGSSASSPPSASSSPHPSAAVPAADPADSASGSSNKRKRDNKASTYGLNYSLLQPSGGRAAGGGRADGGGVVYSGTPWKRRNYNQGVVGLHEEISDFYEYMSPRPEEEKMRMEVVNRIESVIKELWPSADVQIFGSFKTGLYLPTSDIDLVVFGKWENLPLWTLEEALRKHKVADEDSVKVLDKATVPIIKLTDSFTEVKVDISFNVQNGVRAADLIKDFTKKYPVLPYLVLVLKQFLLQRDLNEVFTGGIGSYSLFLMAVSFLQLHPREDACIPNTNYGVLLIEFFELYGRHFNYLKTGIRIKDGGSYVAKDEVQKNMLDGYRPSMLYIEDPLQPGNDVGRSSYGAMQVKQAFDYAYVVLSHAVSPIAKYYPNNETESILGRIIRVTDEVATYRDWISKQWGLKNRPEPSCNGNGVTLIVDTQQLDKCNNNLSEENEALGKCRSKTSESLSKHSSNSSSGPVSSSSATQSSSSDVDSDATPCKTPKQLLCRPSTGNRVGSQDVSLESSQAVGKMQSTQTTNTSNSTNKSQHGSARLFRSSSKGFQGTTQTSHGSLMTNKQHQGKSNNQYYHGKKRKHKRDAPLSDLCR

Fold-change determined at compound concentration 33 μM	Fold-change determined at compound concentration 100 μM	Fold-change determined at compound concentration 10 μM	SMILES
1.04	1.218	–	CCn1cc(C(=O)O)c(=O)c2cc(F)c(N3CCN(C)CC3)cc21 [Entry 103, 1-ethyl-6-fluoro-7-(4-methylpiperazin-1-yl)-4-oxo-1,4-dihydroquinoline-3-carboxylic acid]
1.048	1.235	–	O=c1c(S(=O)(=O)c2cccc(F)c2)c[nH]c2c(F)c(Cl)ccc12 [Entry 104, 7-chloro-8-fluoro-3-(3-fluorophenyl)sulfonyl-1H-quinolin-4-one]
1.16	1.333	–	O=c1c(S(=O)(=O)c2cccc(F)c2)c[nH]c2c(F)ccc(Cl)c12 [Entry 105, 5-chloro-8-fluoro-3-(3-fluorophenyl)sulfonyl-1H-quinolin-4-one]
1.218	1.522	–	Cc1cc(C)c2c(=O)cc(CSc3nnc(-c4cccc(F)c4)n3C)[nH]c2c1 [Entry 106, 2-[[5-(3-fluorophenyl)-4-methyl-1,2,4-triazol-3-yl]sulfanylmethyl]-5,7-dimethyl-1H-quinolin-4-one]
1.319	1.883	–	Cc1ccc2c(=O)cc(CSc3ncn[nH]3)[nH]c2c1C [Entry 107, 7,8-dimethyl-2-(1H-1,2,4-triazol-5-ylsulfanylmethyl)-1H-quinolin-4-one]
1.256	1.547	–	CN(C)S(=O)(=O)c1ccc2c(c1)c(C(=O)n1ccnc1)cn2C [Entry 108, 3-(I-Imidazole-1-carbonyl)-N,N,1-trimethylindole-5-sulfonamide]
1.076	1.231	–	COc1ccc(OC)c(NC(=O)Cc2c(C(=O)O)[nH]c3ccc(Cl)cc23)c1 [Entry 109, 5-chloro-3-[2-(2,5-dimethoxyanilino)-2-oxoethyl]-1H-indole-2-carboxylic acid]
1.126	1.298	–	CCc1ccccc1NC(=O)Cc1c(C(=O)O)[nH]c2ccc(Cl)cc12 [Entry 110, 5-chloro-3-[2-(2-ethylanilino)-2-oxoethyl]-1H-indole-2-carboxylic acid]
1.78	2.308	–	Cc1nc[nH]c1CN1CCc2c(c3ccccc3n2C)C1=O [Entry 111, 5-methyl-2-((4-methyl-1H-imidazol-5-yl)methyl)-2,3,4,5-tetrahydro-1H-pyrido[4,3-b]indol-1-one]
1.316	1.777	–	Cc1cc(C)c2c(=O)cc(C(=O)Nc3ccc(S(=O)(=O)Nc4onc(C)c4C)cc3)oc2c1 [Entry 115, N-[4-[(3,4-dimethyl-1,2-oxazol-5-yl)sulfamoyl]phenyl]-5,7-dimethyl-4-oxochromene-2-carboxamide]
1.459	2.138	–	Cc1ccc2c(=O)cc(C(=O)Nc3nnc(C)s3)oc2c1 [Entry 116, 7-methyl-N-(5-methyl-1,3,4-thiadiazol-2-yl)-4-oxo-4H-chromene-2-carboxamide]
1.177	1.444	–	Cc1cccc2c(=O)cc(C(=O)Nc3nnc(C(C)C)s3)oc12 [Entry 117, 8-methyl-4-oxo-N-(5-propan-2-yl-1,3,4-thiadiazol-2-yl)chromene-2-carboxamide]
1.195	1.615	–	O=c1oc2cc(O)c(O)cc2c2c1CCCC2 [Entry 118, 2,3-dihydroxy-7,8,9,10-tetrahydro-6H-benzo[c]-chromen-6-one]
1.319	1.366	–	CCn1cnc2c(=O)oc3ccc(S(=O)(=O)Nc4ccc(OC)cc4)cc3c21 [Entry 119, 1-ethyl-N-(4-methoxyphenyl)-4-oxochromeno[3,4-d]imidazole-8-sulfonamide]
1.1	1.381	–	Cc1nnc(NC(=O)c2cc(=O)c3cc(F)ccc3o2)s1 [Entry 120, 6-fluoro-N-(5-methyl-1,3,4-thiadiazol-2-yl)-4-oxo-4H-chromene-2-carboxamide]
1.118	1.26	–	CC(C)c1nnc(NC(=O)c2cc(=O)c3ccc(Br)cc3o2)s1 [Entry 121, 7-bromo-4-oxo-N-(5-propan-2-yl-1,3,4-thiadiazol-2-yl)chromene-2-carboxamide]

Fold-change determined at compound concentration 33 μM	Fold-change determined at compound concentration 100 μM	Fold-change determined at compound concentration 10 μM	SMILES
1.134	1.377	–	Cc1cc2oc(C(=O)Nc3nnc(C(C)C)s3)cc(=O)c2cc1C [Entry 122, 6,7-dimethyl-4-oxo-N-(5-propan-2-yl-1,3,4-thiadiazol-2-yl)chromene-2-carboxamide]
1.528	2.189	1.211	CCc1nnc(NC(=O)c2cc(=O)c3cc(C)c(C)cc3o2)s1 [Entry 123, N-(5-ethyl-1,3,4-thiadiazol-2-yl)-6,7-dimethyl-4-oxo-4H-chromene-2-carboxamide]
1.437	1.858	1.241	CCSc1nnc(NC(=O)c2cc(=O)c3cc(C)c(C)cc3o2)s1 [Entry 124, N-(5-ethylsulfanyl-1,3,4-thiadiazol-2-yl)-6,7-dimethyl-4-oxochromene-2-carboxamide]
1.147	1.444	–	CSc1nnc(NC(=O)c2cc(=O)c3cc(C)c(C)cc3o2)s1 [Entry 125, 6,7-dimethyl-N-[5-(methylsulfanyl)-1,3,4-thiadiazol-2-yl]-4-oxo-4H-chromene-2-carboxamide]
1.15	1.302	–	Cc1ccc2c(=O)cc(C(=O)Nc3nnc(CC(C)C)s3)oc2c1C [Entry 126, 7,8-dimethyl-N-[5-(2-methylpropyl)-1,3,4-thiadiazol-2-yl]-4-oxochromene-2-carboxamide]
1.397	1.984	–	CCCc1nnc(NC(=O)c2cc(=O)c3cc(C)c(C)cc3o2)s1 [Entry 127, 6,7-dimethyl-4-oxo-N-(5-propyl-1,3,4-thiadiazol-2-yl)-4H-chromene-2-carboxamide]
1.314	1.957	–	CCOC(=O)Cc1cc(=O)oc2cc(O)cc(O)c12 [Entry 128, Ethyl (5,7-dihydroxy-2-oxo-2H-chromen-4-yl)acetate]
1.153	1.395	–	CCOc1ccc2oc(=O)cc(CN3CCN(C(=O)c4ccc(OC)c(OC)c4)CC3)c2c1 [Entry 129, 4-[[4-(3,4-dimethoxybenzoyl)piperazin-1-yl]methyl]-6-ethoxychromen-2-one]
1.086	1.212	–	Cc1cc(=O)oc2cc(OCC(=O)Nc3ccc(O)c(C(=O)O)c3)ccc12 [Entry 130, 2-hydroxy-5-[[2-(4-methyl-2-oxochromen-7-yl)oxyacetyl]amino]benzoic acid]
1.195	1.653	–	CC(Oc1ccc2c3c(c(=O)oc2c1)CCC3)C(=O)O (centres unmarked) [Entry 131, 2-[(4-Oxo-1,2,3,4-tetrahydrocyclopenta[c]chromen-7-yl)oxy]propanoic acid]
1.303	1.774	–	COc1ccc(-c2coc3c2c(C)cc2oc(=O)c(CC(=O)O)c(C)c23)cc1 [Entry 132, [3-(4-methoxyphenyl)-4,9-dimethyl-7-oxo-7H-furo[2,3-f]chromen-8-yl]acetic acid]
1.186	1.508	–	O=c1oc2cc(OCc3nnn[nH]3)c(Cl)cc2c2c1CCC2 [Entry 133, 8-chloro-7-(1H-tetrazol-5-ylmethoxy)-2,3-dihydrocyclopenta[c]chromen-4(1H)-one]
1.124	1.298	–	Cc1cc(Cl)ccc1NS(=O)(=O)c1cc2[nH]c(=O)c(=O)[nH]c2cc1C [Entry 134, N-(4-chloro-2-methylphenyl)-7-methyl-2,3-dioxo-1,4-dihydroquinoxaline-6-sulfonamide]
1.191	1.347	–	COc1ccc(NS(=O)(=O)c2cc3[nH]c(=O)c(=O)[nH]c3cc2C)cc1Cl [Entry 135, N-(3-chloro-4-methoxyphenyl)-7-methyl-2,3-dioxo-1,4-dihydroquinoxaline-6-sulfonamide]
1.082	1.303	–	COc1ccc(S(=O)(=O)Nc2cc3c(cc2Oc2ccccc2)n(C)c(=O)c(=O)n3C)cc1 [Entry 136, N-(1,4-dimethyl-2,3-dioxo-7-phenoxy-1,2,3,4-tetrahydroquinoxalin-6-yl)-4-methoxybenzenesulfonamide]

SMILES	Fold-change determined at compound concentration 33 μM	Fold-change determined at compound concentration 100 μM	Fold-change determined at compound concentration 10 μM
CC1=NCCc2c1[nH]c1ccccc21 [Entry 113, 1-Methyl-4,9-dihydro-3H-beta-carboline]	1.202	1.674	–
COc1ccc2c(c1)[nH]c1c(C)nccc12 [Entry 114, 7-Methoxy-1-methyl-9H-pyrido[3,4-b]indole]	1.1	1.342	–
